Source: patent US9371336B2, “Compounds for treating spinal muscular atrophy” (PTC Therapeutics Inc., priority 2012, dated 2016)

Experiments:
[1] = system: SMN2 minigene mRNA (SMN2-A minigene construct); experiment: SMN2 minigene mRNA splicing RT-qPCR assay in cultured cells; format: cell-based, human; conditions: Homo sapiens, HEK293-H; HEK293H cells stably transfected with SMN2-A minigene, 24 hours, 7-point concentration data; concentration giving 1.5-fold SMN2 full length mRNA relative to vehicle-treated cells; read-out: EC1.5x for production of full length SMN2 mRNA
How it was run: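 Full-length SMN2 minigene mRNA, measured by exon 7/luciferase-specific RT-qPCR that excludes endogenous SMN1/SMN2, was normalized to GAPDH and expressed relative to vehicle-treated cells via modified ΔΔCt. Stably transfected HEK293H cells received compound (7-point, 3.16-fold series, duplicates) for 24 h at 37 °C.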

Smn protein = Smn protein assay (HTRF) in cultured cells (SMA patient fibroblasts GM03813); format: cell-based, human; conditions: 48 hours; for maximum fold (Fold) increase of Smn protein: SMA patient fibroblast cells, 7-point concentration curve, relative to vehicle control; for EC1.5x for Smn protein expression: SMA patient fibroblast cells (GM03813), HTRF, 7-point concentration data, concentration producing 1.5 times Smn protein vs DMSO vehicle control
How it was run: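 SMA patient fibroblasts (GM03813) were treated 48 h at 37° C with a 7-point, 3.16-fold compound series in triplicate, then lysed in RIPA. Smn was read by HTRF (anti-SMN d2/kryptate, 665/620 nm ratio). ΔF versus blank was divided by vehicle ΔF to give fold Smn increase.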

Row | melting point [°C] | Compound | EC (1.5-fold) [1] [µM] | maximum fold (Fold) increase of Smn protein (Smn protein) | EC1.5x for Smn protein expression (Smn protein)
1 | 251 to 254 | CCCN1CCN(c2ccc3cc(-c4nc5c(Cl)cccc5s4)c(=O)oc3n2)CC1 [Cpd 13, 3-(4-chloro-1,3-benzothiazol-2-yl)-7-(4-propylpiperazin-1-yl)-2H-pyrano[2,3-b]pyridin-2-one] | 1 to 3 | *** (a fold increase between >1.35 and ≦1.5 is indicated by three stars (***)) | –
2 | 238 to 242 | Cc1csc(-c2cc3ccc(N4CCNCC4)nc3oc2=O)n1.Cl [Cpd 15, 3-(4-methyl-1,3-thiazol-2-yl)-7-(piperazin-1-yl)-2H-pyrano[2,3-b]pyridin-2-one hydrochloride] | 3 to 30 | ** (a fold increase between >1.2 and ≦1.35 is indicated by two stars (**)) | –
3 | 274 to 280 | Cl.O=c1oc2nc(N3CCNCC3)ccc2cc1-c1nc(C(F)(F)F)cs1 [Cpd 16, 7-(piperazin-1-yl)-3-[4-(trifluoromethyl)-1,3-thiazol-2-yl]-2H-pyrano[2,3-b]pyridin-2-one hydrochloride] | 1 to 3 | * (A maximum fold increase ≦1.2 is indicated by one star (*)) | –
4 | 254 to 257 | CCN1CCN(c2ccc3cc(-c4nc5ccccc5s4)c(=O)oc3n2)CC1 [Cpd 17, 3-(1,3-benzothiazol-2-yl)-7-(4-ethylpiperazin-1-yl)-2H-pyrano[2,3-b]pyridin-2-one] | 0.3 to 1 | *** (a fold increase between >1.35 and ≦1.5 is indicated by three stars (***)) | –
5 | 247 to 250 | CCCN1CCN(c2ccc3cc(-c4nc5ccccc5s4)c(=O)oc3n2)CC1 [Cpd 18, 3-(1,3-benzothiazol-2-yl)-7-(4-propylpiperazin-1-yl)-2H-pyrano[2,3-b]pyridin-2-one] | 1 to 3 | * (A maximum fold increase ≦1.2 is indicated by one star (*)) | –
6 | 241 to 245 | CC(C)N1CCN(c2ccc3cc(-c4nc5ccccc5s4)c(=O)oc3n2)CC1 [Cpd 19, 3-(1,3-benzothiazol-2-yl)-7-[4-(propan-2-yl)piperazin-1-yl]-2H-pyrano[2,3-b]pyridin-2-one] | 0.3 to 1 | ** (a fold increase between >1.2 and ≦1.35 is indicated by two stars (**)) | –
7 | 228 to 232 | CCN1CCN(c2ccc3cc(-c4nc(C)cs4)c(=O)oc3n2)CC1 [Cpd 20, 7-(4-ethylpiperazin-1-yl)-3-(4-methyl-1,3-thiazol-2-yl)-2H-pyrano[2,3-b]pyridin-2-one] | 3 to 30 | * (A maximum fold increase ≦1.2 is indicated by one star (*)) | –
8 | 210 to 214 | CCCN1CCN(c2ccc3cc(-c4nc(C)cs4)c(=O)oc3n2)CC1 [Cpd 21, 3-(4-methyl-1,3-thiazol-2-yl)-7-(4-propylpiperazin-1-yl)-2H-pyrano[2,3-b]pyridin-2-one] | 3 to 30 | * (A maximum fold increase ≦1.2 is indicated by one star (*)) | –
9 | 216 to 220 | O=c1oc2nc(N3CCN(CC(O)CO)CC3)ccc2cc1-c1nc2c(Cl)cccc2s1 (centres unmarked) [Cpd 22, 3-(4-chloro-1,3-benzothiazol-2-yl)-7-[4-(2,3-dihydroxypropyl)piperazin-1-yl]-2H-pyrano[2,3-b]pyridin-2-one] | 0.3 to 1 | **** (a fold increase between >1.5 and ≦1.65 is indicated by four stars (****)) | *** (an EC1.5× between >0.3 μM and ≦1 μM is indicated by three stars (***))
10 | 230 to 234 | CC(C)N1CCN(c2ccc3cc(-c4nc5c(Cl)cccc5s4)c(=O)oc3n2)CC1 [Cpd 23, 3-(4-chloro-1,3-benzothiazol-2-yl)-7-[4-(propan-2-yl)piperazin-1-yl]-2H-pyrano[2,3-b]pyridin-2-one] | 0.3 to 1 | ** (a fold increase between >1.2 and ≦1.35 is indicated by two stars (**)) | –
11 | 218 to 222 | Cc1ccc2nc(-c3cc4ccc(N5CCNCC5)nc4oc3=O)cn2c1.Cl [Cpd 24, 3-(6-methylimidazo[1,2-a]pyridin-2-yl)-7-(piperazin-1-yl)-2H-pyrano[2,3-b]pyridin-2-one hydrochloride] | 0.3 to 1 | ** (a fold increase between >1.2 and ≦1.35 is indicated by two stars (**)) | –
12 | 220 to 224 | O=c1oc2nc(N3CCN(CCO)CC3)ccc2cc1-c1nc2ccccc2s1 [Cpd 25, 3-(1,3-benzothiazol-2-yl)-7-[4-(2-hydroxyethyl)piperazin-1-yl]-2H-pyrano[2,3-b]pyridin-2-one] | 0.3 to 1 | *** (a fold increase between >1.35 and ≦1.5 is indicated by three stars (***)) | –
13 | 236 to 239 | O=c1oc2nc(N3CCN(CC(O)CO)CC3)ccc2cc1-c1nc2ccccc2s1 (centres unmarked) [Cpd 26, 3-(1,3-benzothiazol-2-yl)-7-[4-(2,3-dihydroxypropyl)piperazin-1-yl]-2H-pyran [2,3-b]pyridin-2-one] | 1 to 3 | ** (a fold increase between >1.2 and ≦1.35 is indicated by two stars (**)) | –
14 | 240 to 244 | Cc1ccn2cc(-c3cc4ccc(N5CCNCC5)nc4oc3=O)nc2c1.Cl [Cpd 29, 3-(7-methylimidazo[1,2-a]pyridin-2-yl)-7-(piperazin-1-yl)-2H-pyrano[2,3-b]pyridin-2-one hydrochloride] | ≤ 0.1 | *** (a fold increase between >1.35 and ≦1.5 is indicated by three stars (***)) | –
15 | 250 to 252 | Cl.O=c1oc2nc(N3CCCNCC3)ccc2cc1-c1cn2cccnc2n1 [Cpd 30, 7-(1,4-diazepan-1-yl)-3-(imidazo[1,2-a]pyrimidin-2-yl)-2H-pyrano[2,3-b]pyridin-2-one hydrochloride] | 0.1 to 0.3 | *** (a fold increase between >1.35 and ≦1.5 is indicated by three stars (***)) | ** (an EC1.5× between >1 and ≦3 μM is indicated by two stars (**))
16 | 271 to 273 | Cl.O=c1oc2nc(N3CCCNCC3)ccc2cc1-c1nc2c(Cl)cccc2s1 [Cpd 31, 3-(4-chloro-1,3-benzothiazol-2-yl)-7-(1,4-diazepan-1-yl)-2H-pyrano[2,3-b]pyridin-2-one hydrochloride] | 0.1 to 0.3 | ** (a fold increase between >1.2 and ≦1.35 is indicated by two stars (**)) | –
17 | 267 to 269 | Cl.O=c1oc2nc(N3CCCNCC3)ccc2cc1-c1cn2ccsc2n1 [Cpd 32, 7-(1,4-diazepan-1-yl)-3-(imidazo[2,1-b][1,3]thiazol-6-yl)-2H-pyrano[2,3-b]pyridin-2-one hydrochloride] | ≤ 0.1 | *** (a fold increase between >1.35 and ≦1.5 is indicated by three stars (***)) | –
18 | 264 to 268 | Cc1ccc2nc(-c3cc4cnc(N5CCN(C)CC5)cc4oc3=O)cn2c1 [Cpd 34, 3-(6-methylimidazo[1,2-a]pyridin-2-yl)-7-(4-methylpiperazin-1-yl)-2H-pyrano[3,2-c]pyridin-2-one] | 1 to 3 | *** (a fold increase between >1.35 and ≦1.5 is indicated by three stars (***)) | –
